Laboratory results: patent US11572590B2, “Methods for evaluating tumor cell spheroids using 3D microfluidic cell culture device” (Dana-Farber Cancer Institute, Inc., priority 2017, dated 2023)
Where two headings read alike, the source gives them in different places.

How the values were obtained:
Assay in all cases: SelectScreen Kinase Profiling, single point inhibition and IC50 for off-target kinases
Type in all cases: biochemical
off-target kinases [1] = target: T1, off-target kinases (Homo sapiens, UniProt O75385); conditions: ULK1, LanthaScreen Binding
T1 sequence (O75385 1-1050): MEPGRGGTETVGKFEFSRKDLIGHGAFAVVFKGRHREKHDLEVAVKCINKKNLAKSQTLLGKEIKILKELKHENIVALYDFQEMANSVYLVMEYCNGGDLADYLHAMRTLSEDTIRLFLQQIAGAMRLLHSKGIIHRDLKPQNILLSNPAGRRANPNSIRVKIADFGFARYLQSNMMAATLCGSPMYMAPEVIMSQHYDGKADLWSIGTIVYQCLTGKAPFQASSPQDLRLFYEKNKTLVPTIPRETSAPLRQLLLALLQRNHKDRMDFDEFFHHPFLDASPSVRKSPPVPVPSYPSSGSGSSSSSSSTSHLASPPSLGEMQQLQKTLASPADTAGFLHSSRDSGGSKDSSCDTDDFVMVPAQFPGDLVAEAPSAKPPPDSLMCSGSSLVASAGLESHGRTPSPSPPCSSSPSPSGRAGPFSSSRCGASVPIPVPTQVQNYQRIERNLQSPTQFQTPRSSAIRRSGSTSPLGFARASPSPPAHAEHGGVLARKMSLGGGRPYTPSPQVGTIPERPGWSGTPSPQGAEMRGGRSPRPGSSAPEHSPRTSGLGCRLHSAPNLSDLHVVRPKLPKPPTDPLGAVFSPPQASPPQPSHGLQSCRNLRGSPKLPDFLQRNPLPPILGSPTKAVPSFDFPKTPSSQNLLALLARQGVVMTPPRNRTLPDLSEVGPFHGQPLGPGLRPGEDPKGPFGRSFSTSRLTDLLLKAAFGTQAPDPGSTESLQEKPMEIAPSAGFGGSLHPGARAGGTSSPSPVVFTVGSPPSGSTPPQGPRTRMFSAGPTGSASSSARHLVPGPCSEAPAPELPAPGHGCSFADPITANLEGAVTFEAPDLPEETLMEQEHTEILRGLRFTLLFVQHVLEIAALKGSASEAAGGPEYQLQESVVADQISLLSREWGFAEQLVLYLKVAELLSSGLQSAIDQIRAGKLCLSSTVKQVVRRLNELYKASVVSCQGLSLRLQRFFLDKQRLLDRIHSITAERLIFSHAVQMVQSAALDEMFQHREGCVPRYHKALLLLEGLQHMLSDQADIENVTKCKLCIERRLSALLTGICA

off-target kinases [2] = target: T2, off-target kinases (Homo sapiens, UniProt Q99759); conditions: MAP3K3 (MEKK3), LanthaScreen Binding
T2 sequence (Q99759 1-626): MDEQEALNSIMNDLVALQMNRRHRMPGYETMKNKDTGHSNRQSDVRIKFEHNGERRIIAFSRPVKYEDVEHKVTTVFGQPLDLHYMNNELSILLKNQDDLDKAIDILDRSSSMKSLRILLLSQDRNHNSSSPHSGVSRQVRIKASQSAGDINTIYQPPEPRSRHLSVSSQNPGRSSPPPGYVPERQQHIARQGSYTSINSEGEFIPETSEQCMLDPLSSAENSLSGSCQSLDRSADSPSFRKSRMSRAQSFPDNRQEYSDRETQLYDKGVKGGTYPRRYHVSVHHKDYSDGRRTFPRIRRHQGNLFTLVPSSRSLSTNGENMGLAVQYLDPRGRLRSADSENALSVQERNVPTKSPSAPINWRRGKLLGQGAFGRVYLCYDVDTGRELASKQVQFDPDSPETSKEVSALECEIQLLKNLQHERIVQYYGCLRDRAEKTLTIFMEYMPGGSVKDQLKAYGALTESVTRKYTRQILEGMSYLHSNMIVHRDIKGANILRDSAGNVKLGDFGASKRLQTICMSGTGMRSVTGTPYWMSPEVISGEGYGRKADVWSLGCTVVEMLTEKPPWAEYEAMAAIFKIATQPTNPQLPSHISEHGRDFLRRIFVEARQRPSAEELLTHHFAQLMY

off-target kinases [3] = target: off-target kinases (Homo sapiens, UniProt Q9BUB5); conditions: MKNK1 (MNK1), ATP Km app, ZLYTE
off-target kinases (Homo sapiens, UniProt Q9BUB5), sequence (Q9BUB5 whole entry): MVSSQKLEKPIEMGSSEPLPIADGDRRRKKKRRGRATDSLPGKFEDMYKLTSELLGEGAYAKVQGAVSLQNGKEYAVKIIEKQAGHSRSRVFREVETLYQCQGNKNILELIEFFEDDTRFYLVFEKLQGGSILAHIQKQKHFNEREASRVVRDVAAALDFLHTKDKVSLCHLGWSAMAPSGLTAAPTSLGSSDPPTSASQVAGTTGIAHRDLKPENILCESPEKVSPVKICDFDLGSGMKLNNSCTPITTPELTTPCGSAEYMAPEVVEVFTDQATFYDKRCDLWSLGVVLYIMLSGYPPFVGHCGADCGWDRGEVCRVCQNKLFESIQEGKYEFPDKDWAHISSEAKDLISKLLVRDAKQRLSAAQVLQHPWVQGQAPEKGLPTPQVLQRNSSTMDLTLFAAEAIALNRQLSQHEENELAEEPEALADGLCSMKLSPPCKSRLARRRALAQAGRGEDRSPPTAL

N#Cc1cc(-c2ncnc(Nc3ccc(N4CCN(C5COC5)CC4)cc3)n2)ccc1OC1CCOCC1 [Compound 1, 5-(4-((4-(4-(oxetan-3-yl)piperazin-1-yl)phenyl)amino)-1,3,5-triazin-2-yl)-2-((tetrahydro-2H-pyran-4-yl)oxy)benzonitrile]
inhibition (off-target kinases [1]; read-out: % Inhibition 1): 91%
inhibition (off-target kinases [1]; read-out: % Inhibition 2): 92%
inhibition (off-target kinases [1]; read-out: % Inhibition Avg): 92%
inhibition (off-target kinases [2]; read-out: % Inhibition 1): 10%
inhibition (off-target kinases [2]; read-out: % Inhibition 2): 13%
inhibition (off-target kinases [2]; read-out: % Inhibition Avg): 12%
inhibition (off-target kinases [3]; read-out: % Inhibition 1): 99%
inhibition (off-target kinases [3]; read-out: % Inhibition 2): 100%
inhibition (off-target kinases [3]; read-out: % Inhibition Avg): 100%
